US8912181B2 (Taiho Pharmaceutical Co., Ltd., priority 2011, dated 2014)

Columns and labels:
[1] = biological target: human HSP90 alpha protein (N-terminal, amino acids 2 to 236) (Homo sapiens (Human), UniProt P07900); experiment: Determination of HSP90-binding activity (AlphaScreen competitive assay with biotinylated geldanamycin); conditions: inhibition of binding of biotinylated geldanamycin to purified HSP90 N-terminal protein, read-out: HSP-binding activity IC50
Summary of the method: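 His-tagged N-terminal construct (aa 2–236) expressed in E. coli and purified was preincubated with compound 2 h at room temperature, then biotinylated geldanamycin (40 nM/well) added for 1 h. AlphaScreen nickel-chelate acceptor/streptavidin donor beads, 1 h dark; percent inhibition calculated against no-compound signal.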

SK-BR-3 cells = experiment: Determination of cell growth inhibition (crystal violet staining method); type: cell-based; conditions: Homo sapiens; breast cancer cells SK-BR-3, 72 hours culture with test substance
Summary of the method: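 SK-BR-3 cells seeded 5,000/well, cultured 24 h at 37 °C, then exposed to compound for 72 h. Cells fixed with glutaraldehyde, stained with 0.05% crystal violet, eluted and read at 540 nm; percent growth inhibition calculated versus untreated wells.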

IC50 [1]	IC50 (SK-BR-3 cells)	SMILES
500 nM	20 nM	CC(C)c1cc(-c2ccc(C(N)=O)c(NC(C)(C)C)c2)c2cccc(-n3cnc(-c4cnn(C)c4)c3)c2n1 [Example 112, 2-(Tert-butylamino)-4-(2-isopropyl-8-(4-(1-methyl-1H-pyrazol-4-yl)-1H-imidazol-1-yl)quinolin-4-yl)benzamide]
80 nM	10 nM	CC(C)c1cc(-c2ccc(C(N)=O)c(N)c2)c2cccc(-n3cnc(-c4cnn(C)c4)c3)c2n1 [Example 113, 2-Amino-4-(2-isopropyl-8-(4-(1-methyl-1H-pyrazol-4-yl)-1H-imidazol-1-yl)quinolin-4-yl)benzamide]
70 nM	10 nM	NC(=O)c1ccc(-c2nc(C(F)(F)F)nc3c(-c4cnc5ccccc5c4)cccc23)cc1NC1CCC(O)CC1 (stereo not shown) [Example 114, 2-(4-Hydroxycyclohexylamino)-4-(8-(quinolin-3-yl)-2-(trifluoromethyl)quinazolin-4-yl)benzamide]
140 nM	10 nM	NC(=O)c1ccc(-c2nc(C3CC3)nc3c(-c4cnc5ccccc5c4)cccc23)cc1NC1CCC(O)CC1 (stereo not shown) [Example 115, 4-(2-Cyclopropyl-8-(quinolin-3-yl)quinazolin-4-yl)-2-(4-hydroxycyclohexylamino)benzamide]
290 nM	50 nM	NC(=O)c1ccc(-c2ccnc3c(-c4cnc5ccccc5c4)cccc23)cc1NC1CCC(O)CC1 (stereo not shown) [Example 117, 4-(3,8′-Biquinolin-4′-yl)-2-(4-hydroxycyclohexylamino)benzamide]
250 nM	60 nM	Cc1ccc(-c2cn(-c3cccc4c(-c5ccc(C(N)=O)c(N)c5)cc(C(F)(F)F)nc34)cn2)cn1 [Example 118, 2-Amino-4-(8-(4-(6-methylpyridin-3-yl)-1H-imidazol-1-yl)-2-(trifluoromethyl)quinolin-4-yl)benzamide]
830 nM	840 nM	CCNc1cc(-c2cccc3c(-n4cnc(-c5cnn(C)c5)c4)ccnc23)ccc1C(N)=O [Example 119, 2-(Ethylamino)-4-(4-(4-(1-methyl-1H-pyrazol-4-yl)-1H-imidazol-1-yl)quinolin-8-yl)benzamide]
190 nM	30 nM	CCc1cc(-c2ccc(C(N)=O)c(N)c2)c2cccc(-c3cnc4ccccc4c3)c2n1 [Example 120, 2-Amino-4-(2′-ethyl-3,8′-biquinolin-4′-yl)benzamide]
180 nM	20 nM	CC(C)c1cc(-c2ccc(C(N)=O)c(N)c2)c2cccc(-c3cnc4ccccc4c3)c2n1 [Example 121, 2-Amino-4-(2′-isopropyl-3,8′-biquinolin-4′-yl)benzamide]
90 nM	10 nM	CCc1cc(-c2ccc(C(N)=O)c(N)c2)c2cccc(-n3cnc(-c4cccnc4)c3)c2n1 [Example 122, 2-Amino-4-(2-ethyl-8-(4-(pyridin-3-yl)-1H-imidazol-1-yl)quinolin-4-yl)benzamide]
160 nM	10 nM	CC(C)c1cc(-c2ccc(C(N)=O)c(N)c2)c2cccc(-n3cnc(-c4cccnc4)c3)c2n1 [Example 123, 2-Amino-4-(2-isopropyl-8-(4-(pyridin-3-yl)-1H-imidazol-1-yl)quinolin-4-yl)benzamide]
130 nM	20 nM	CCc1cc(-c2ccc(C(N)=O)c(N)c2)c2cccc(-n3cnc(-c4ccc(C)nc4)c3)c2n1 [Example 124, 2-Amino-4-(2-ethyl-8-(4-(6-methylpyridin-3-yl)-1H-imidazol-1-yl)quinolin-4-yl)benzamide]
160 nM	10 nM	Cc1ccc(-c2cn(-c3cccc4c(-c5ccc(C(N)=O)c(N)c5)cc(C(C)C)nc34)cn2)cn1 [Example 125, 2-Amino-4-(2-isopropyl-8-(4-(6-methylpyridin-3-yl)-1H-imidazol-1-yl)quinolin-4-yl)benzamide]
1530 nM	350 nM	CC(C)(C)Nc1cc(-c2nccc3c(-c4cnc5ccccc5c4)cccc23)ccc1C(N)=O [Example 126, 2-(Tert-butylamino)-4-(5-(quinolin-3-yl)isoquinolin-1-yl)benzamide]
210 nM	50 nM	CC(C)(C)Nc1cc(-c2nccc3c(-n4cnc(-c5cccnc5)c4)cccc23)ccc1C(N)=O [Example 127]
310 nM	1060 nM	Cn1cc(-c2cn(-c3cccc4c(-c5ccc(C(N)=O)c(N)c5)nccc34)cn2)cn1 [Example 128, 2-Amino-4-(5-(4-(1-methyl-1H-pyrazol-4-yl)-1H-imidazol-1-yl)isoquinolin-1-yl)benzamide]
110 nM	60 nM	Cn1cc(-c2cn(-c3cccc4c(-c5ccc(C(N)=O)c(NC(C)(C)C)c5)ccnc34)cn2)cn1 [Example 130, 2-(Tert-butylamino)-4-(8-(4-(1-methyl-1H-pyrazol-4-yl)-1H-imidazol-1-yl)quinolin-4-yl)benzamide]
260 nM	140 nM	CC(C)(C)Nc1cc(-c2ccnc3c(-n4cnc(-c5cccnc5)c4)cccc23)ccc1C(N)=O [Example 131, 2-(Tert-butylamino)-4-(8-(4-(pyridin-3-yl)-1H-imidazol-1-yl)quinolin-4-yl)benzamide]
320 nM	960 nM	Cn1cc(-c2cn(-c3cccc4c(-c5ccc(C(N)=O)c(N)c5)ccnc34)cn2)cn1 [Example 132, 2-Amino-4-(8-(4-(1-methyl-1H-pyrazol-4-yl)-1H-imidazol-1-yl)quinolin-4-yl)benzamide]
840 nM	1320 nM	NC(=O)c1ccc(-c2ccnc3c(-n4cnc(-c5cccnc5)c4)cccc23)cc1N [Example 133]
